In patent EP0035868A1, “Bicyclic compounds, their production and use” (Takeda Chemical Industries, Ltd., priority 1980, dated 1981):

Assays:
[1] = target: T1, ACE (angiotensin I converting enzyme) (Oryctolagus cuniculus, UniProt P12822); experiment: Inhibition of angiotensin I converting enzyme (HHL substrate, modified Cushman method); type: biochemical; conditions: 37°C, one hour, read-out: Inhibitory Activity on ACE (%); for inhibition at 1 µM: Concentration 1 μM; for inhibition at 10 µM: Concentration 10 μM
T1 sequence (P12822 34-1310): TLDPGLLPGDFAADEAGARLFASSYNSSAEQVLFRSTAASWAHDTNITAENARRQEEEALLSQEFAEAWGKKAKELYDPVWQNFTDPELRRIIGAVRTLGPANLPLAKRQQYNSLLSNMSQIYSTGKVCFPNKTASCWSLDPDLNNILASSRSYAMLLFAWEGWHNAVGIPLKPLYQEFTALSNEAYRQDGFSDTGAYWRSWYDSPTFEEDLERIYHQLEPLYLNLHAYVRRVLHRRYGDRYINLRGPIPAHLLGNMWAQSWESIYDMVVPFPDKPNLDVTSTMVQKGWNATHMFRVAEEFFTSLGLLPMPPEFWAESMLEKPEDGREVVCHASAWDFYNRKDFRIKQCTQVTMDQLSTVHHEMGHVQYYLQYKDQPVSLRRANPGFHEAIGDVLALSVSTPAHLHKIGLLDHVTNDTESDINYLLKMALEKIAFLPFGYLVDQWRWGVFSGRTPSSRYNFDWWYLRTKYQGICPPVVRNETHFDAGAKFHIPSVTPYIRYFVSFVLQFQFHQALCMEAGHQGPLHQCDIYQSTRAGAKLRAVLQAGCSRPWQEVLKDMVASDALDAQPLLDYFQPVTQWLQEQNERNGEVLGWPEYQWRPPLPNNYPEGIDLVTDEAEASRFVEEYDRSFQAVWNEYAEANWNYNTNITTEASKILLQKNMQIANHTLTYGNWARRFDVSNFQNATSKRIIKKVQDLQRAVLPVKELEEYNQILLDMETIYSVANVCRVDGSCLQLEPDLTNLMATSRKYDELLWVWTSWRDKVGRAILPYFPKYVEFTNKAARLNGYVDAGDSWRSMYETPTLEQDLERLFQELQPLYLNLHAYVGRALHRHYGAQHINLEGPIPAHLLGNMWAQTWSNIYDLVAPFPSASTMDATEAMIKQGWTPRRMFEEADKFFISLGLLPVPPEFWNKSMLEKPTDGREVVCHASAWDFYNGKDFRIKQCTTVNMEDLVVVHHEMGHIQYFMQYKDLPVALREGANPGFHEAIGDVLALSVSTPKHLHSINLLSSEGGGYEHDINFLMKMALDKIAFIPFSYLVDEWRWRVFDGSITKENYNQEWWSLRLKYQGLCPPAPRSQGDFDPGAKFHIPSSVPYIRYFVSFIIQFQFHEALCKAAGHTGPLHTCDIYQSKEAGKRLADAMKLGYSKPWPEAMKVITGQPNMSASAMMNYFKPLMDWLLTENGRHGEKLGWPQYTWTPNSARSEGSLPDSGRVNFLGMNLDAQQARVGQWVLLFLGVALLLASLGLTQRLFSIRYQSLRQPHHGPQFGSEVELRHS
Experimental: The experiment was conducted in accordance with a modification of the method described by Cushman et al. [Biochemical Pharmacology, Vol. 20, pl637(1971)].
That is, using hippuryl-L-histidyl-L-leucine(HHL) as the substrate, the ACE (angiotensin I converting enzyme) inhibitory activity was determined in terms of percent inhibition on the amount of hippuric acid produced by ACE when the present compound was added. A solution of the compound of the present invention dissolved in a 0.02 to 2% dimethyl sulfoxide-500 mM potassium phosphate buffer solution (pH 8.3, containing 300 mM sodium chloride) was added to 100 µl of ACE (protein concentration, 20 mg/ml) and 100 µl of 1.25 mM HHL. In this experiment, a potassium phosphate buffer solution containing dimethyl sulfoxide at a concentration equal to that of the test solution was used as a control. After incubating the solution at 37°C for one hour, 150 µl of 1N hydrochloric acid was added to the solution to terminate the reaction. After 1 ml of ethyl acetate was added, the solution was centrifuged at 3000 r.p.m. for 10 minutes. A 0.5 ml aliquot was separated from the ethyl acetate layer and dried at a temperature below 50°C under nitrogen gas streams. The residue was mixed with 5 ml of 1M aqueous sodium chloride and the mixture was subjected to colorimetry at a wavelength of 228 nm.

[2] = test system: Hypertensive Activity of Angiotensin I; experiment: Effect against hypertensive activity of angiotensin I in rats, oral administration; type: in vivo, Male rats (Sprague-Dawley); conditions: 13.8 µM/kg orally, angiotensin I 300 ng/kg i.v., corrected by angiotensin II reaction
Experimental: Male rats (Sprague-Dawley) weighing 250 g to 350 g which were fed under free access to drinking water and feeds were used as experimental animals. The rats were anesthetized with intraperitoneal administration of pentobarbital sodium (50 mg/kg) on the day before the test day and a polyethylene tube was inserted into each of the femoral artery for measurement of blood pressure and the femoral vein for injection of angiotensin I and II, and then the tubes were fixed.
On the test day, an average blood pressure in the control phase was recorded on an electric hemodynamometer (MP-4T model manufactured by Nippon Koden, Japan) and thereafter angiotensin I and then angiotensin II were injected through the femoral vein at a dose of 300 ng/kg and 100 ng/kg respectively, to measure the hypertensive activity. Then, 13.8 µM/kg of the compound of this invention was administered orally as an aqueous solution or an aqueous gum arabic suspension, and 20, 60 and 120 minutes after the administration, angiotensin I and II were injected repeatedly to trace hypertensive reactions. In calculating the percent inhibition to the hypertensive acitivity of angiotensin I, the-percent inhibitory value was corrected based on the variation with time in the hypertensive reaction by angiotensin II.

SMILES: CC(=O)SCC(C)C(=O)N(CC(=O)O)C1CCc2ccccc2C1 (centres unmarked) [Example 32, N-(3-acetylthio-2-methylpropionyl)-N-(1,2,3,4-tetrahydro-2-naphthyl)glycine]
- inhibition at 1 µM [1]: 73%
- inhibition at 10 µM [1]: 95%

SMILES: C[C@H](CSC(=O)c1ccccc1)C(=O)N(CC(=O)O)C1Cc2ccccc2C1 [Example 38, N-(3-benzoylthio-2(S)-methylpropionyl)-N-(2-indanyl)glycine]
- inhibition at 1 µM [1]: 86%
- inhibition at 10 µM [1]: 98%

SMILES: CC(=O)SCC(C)C(=O)N(CC(=O)O)C1Cc2ccccc2C1 (centres unmarked) [Example 35, N-(3-acetylthio-2-methylpropionyl)-N-(2-indanyl)glycine]
- Percent Inhibition (%) against Hypertensive Reaction by Angiotensin I ([2]; After 20 min.): 100%
- Percent Inhibition (%) against Hypertensive Reaction by Angiotensin I ([2]; After 60 min.): 100%
- Percent Inhibition (%) against Hypertensive Reaction by Angiotensin I ([2]; After 120 min.): 91%

SMILES: COc1cc2c(cc1OC)C(N(CC(=O)O)C(=O)C(CSC(C)=O)CSC(C)=O)CC2 (centres unmarked) [Example 43, N-(3-acetylthio-2-acetylthiomethylpropionyl)-N-(5,6-dimethoxy-1-indanyl)glycine]
- inhibition at 1 µM [1]: 32%
- inhibition at 10 µM [1]: 75%

SMILES: COc1cc2c(cc1OC)CC(N(CC(=O)O)C(=O)C(C)CSC(C)=O)C2 (centres unmarked) [Example 41, N-(3-acetylthio-2-methylpropionyl)-N-(5,6-dimethoxy-2-indanyl)glycine]
- Percent Inhibition (%) against Hypertensive Reaction by Angiotensin I ([2]; After 20 min.): 89%
- Percent Inhibition (%) against Hypertensive Reaction by Angiotensin I ([2]; After 60 min.): 93%
- Percent Inhibition (%) against Hypertensive Reaction by Angiotensin I ([2]; After 120 min.): 92%

SMILES: COc1cc2c(cc1OC)C(N(CC(=O)O)C(=O)C(C)CS)CC2 (stereo not drawn) [Example 45, N-(3-mercapto-2-methylpropionyl)-N-(5,6-dimethoxy-l-indanyl)glycine]
- inhibition at 1 µM [1]: 74%
- inhibition at 10 µM [1]: 99%

SMILES: COc1cc2c(cc1OC)C(N(CC(=O)O)C(=O)C(C)CSC(C)=O)CC2 (centres unmarked) [Example 8, N-(3-Acetylthio-2-methylpropionyl)-N-(5,6-dimethoxy-1-indanyl)glycine]
- Percent Inhibition (%) against Hypertensive Reaction by Angiotensin I ([2]; After 20 min.): 86%
- Percent Inhibition (%) against Hypertensive Reaction by Angiotensin I ([2]; After 60 min.): 94%
- Percent Inhibition (%) against Hypertensive Reaction by Angiotensin I ([2]; After 120 min.): 91%

SMILES: COc1ccc2c(c1OC)CCCC2N(CC(=O)O)C(=O)C(C)CSC(C)=O (centres unmarked) [Example 18]
- Percent Inhibition (%) against Hypertensive Reaction by Angiotensin I ([2]; After 20 min.): 83%
- Percent Inhibition (%) against Hypertensive Reaction by Angiotensin I ([2]; After 60 min.): 70%
- Percent Inhibition (%) against Hypertensive Reaction by Angiotensin I ([2]; After 120 min.): 72%

SMILES: CC(=O)SCC(C)C(=O)N(CC(=O)O)C1CCc2cc(O)ccc21 (centres unmarked) [Example 6]
- inhibition at 1 µM [1]: 45%
- inhibition at 10 µM [1]: 88%

SMILES: COc1ccc2c(c1)C(N(CC(=O)O)C(=O)C(C)CSC(C)=O)CC2 (stereo not drawn) [Example 1, N-(3-acetylthio-2-methylpropionyl)-N-(6-methoxy-l-indanyl)-glycine]
- Percent Inhibition (%) against Hypertensive Reaction by Angiotensin I ([2]; After 20 min.): 96%
- Percent Inhibition (%) against Hypertensive Reaction by Angiotensin I ([2]; After 60 min.): 94%
- Percent Inhibition (%) against Hypertensive Reaction by Angiotensin I ([2]; After 120 min.): 91%

SMILES: CC(=O)SCCC(=O)N(CC(=O)O)C1Cc2ccccc2C1 [Example 40, N-(3-acetylthiopropionyl)-N-(2-indanyl) glycine]
- inhibition at 1 µM [1]: 77%
- inhibition at 10 µM [1]: 92%

SMILES: CC(=O)SCC(C)C(=O)N(CC(=O)O)C1CCc2ccccc21 (centres unmarked) [Example 3]
- Percent Inhibition (%) against Hypertensive Reaction by Angiotensin I ([2]; After 20 min.): 95%
- Percent Inhibition (%) against Hypertensive Reaction by Angiotensin I ([2]; After 60 min.): 90%
- Percent Inhibition (%) against Hypertensive Reaction by Angiotensin I ([2]; After 120 min.): 83%

SMILES: CC(=O)SCC(C)C(=O)N(CC(=O)O)C1CCOc2ccc(Cl)cc21 (centres unmarked) [Example 21]
- inhibition at 1 µM [1]: 19%
- inhibition at 10 µM [1]: 66%

SMILES: CC(=O)SCC(C)C(=O)N(CC(=O)O)C1CCc2cc3c(cc21)OCO3 (centres unmarked) [Example 9, N-(3-acetylthio-2-methylpropionyl)-N-(5,6-methylenedioxy-I-indanyl)glycine]
- Percent Inhibition (%) against Hypertensive Reaction by Angiotensin I ([2]; After 20 min.): 81%
- Percent Inhibition (%) against Hypertensive Reaction by Angiotensin I ([2]; After 60 min.): 78%
- Percent Inhibition (%) against Hypertensive Reaction by Angiotensin I ([2]; After 120 min.): 59%
